Measured values reported in patent US6989155B1, “Powders” (Vectura Limited, priority 1998, dated 2006).

Experiments:
Type in all cases: physicochemical
[1] = Bulk density (poured density) of powder in a 100 cm^3 measuring cylinder; details: L-leucine samples
Description: The bulk density (or poured density) of a material of the present invention is determined by the following method:
2 g of the material is poured from weighing paper into a 100 cm^3 graduated glass measuring cylinder in an upright position. Transfer of the material from the paper into the cylinder is made as rapidly as flow permits. The volume occupied by the poured powder in the cylinder is measured to the nearest 0.5 ml (bulk volume) and the weight of the powder is determined.
The bulk density of the material is calculated as the weight of the powder divided by the bulk volume.
The bulk density and particle size diameter (as VMD) were determined for the spray-dried leucine. Bulk density and VMD were determined by the method indicated above.
The bulk density and particle size distribution were determined by the methods described in respect of Example 1 above, and are given in Table 3.

[2] = Particle size distribution by low angle laser light scattering (Mastersizer X); details: for D(v,90): diameter below which 90% of particles by volume reside, unit not given; for VMD: volume median diameter, dispersant 0.05% lecithin in cyclohexane
Description: The particle size distribution was determined by low angle laser light scattering (Mastersizer X, Malvern Instruments, Malvern, UK). To approximately 5 mg of the sample to be analysed 10 ml of dispersant was added (0.05% lecithin in cyclohexane). The sample suspension was sonicated for 30 seconds before analysis. The volume median diameter (VMD) and D(v,90) were determined. VMD is the diameter such that 50% of the particles by volume have a diameter less than the VMD. D(v,90) is the equivalent volume diameter at 90% cumulative volume. The bulk density and particle size diameter (as VMD) were determined for the spray-dried leucine. Bulk density and VMD were determined by the method indicated above.

[3] = Flow properties: poured density, tapped density and Carr's Index; details: for Poured Density: 250 cm^3 measuring cylinder; for Tapped Density: tapped to constant volume
Description: The flow properties of the L-leucine were determined by measuring the Carr's Index of the powder. Spray-dried L-leucine was added to a powdered protein (BSA-maltodextrin 50:50).
Carr's Index of a sample was determined by measuring the volume (Vpour) of weight (W) poured into a 250 cm^3 measuring cylinder and tapping the cylinder to obtain constant volume of the sample (Vtap). The poured density (bulk density) and the tap density are calculated as W/Vpour and W/Vtap respectively and Carr's Index is calculated from the tapped density and the poured density by the formula [formula]

[4] = Thickness of flakes (electron microscope observation); details: flakes prepared by the spray drying method
Excerpt: Observation of the thickness of the flakes may be made by studying electron microscope (SEM) images of the particles. For example, flakes may be mounted on an electron microscope stub with double sided tape and coated with gold prior to examination on an electron microscope. An alternative method for observing the dimensions of particles of the present invention is by sizing the particles on a microscope slide in a similar way to that described in British Pharmacopoeia 1973 (page 645, Ergotamine Aerosol Inhalation). In this case a small quantity of particles, for example 10 to 100 mg, are dropped onto a microscope slide and examined under a microscope to assess the particle size of the deposit.

[5] = listed as unprocessed L-leucine

SMILES	Bulk Density ([1]; Example 1, Table 1) [g cm^−3]	VMD [2]	Bulk Density ([1]; Example 2, Table 3) [gcm^−3]	other results
CC(C)C[C@H](N)C(=O)O [spray-dried A, L-leucine]	0.042	4.2 μm	–	D(v,90) [2]: 10.6
CC(C)C[C@H](N)C(=O)O [milled, L-leucine, reference compound]	–	milled (VMD = 18 μm)	0.30	–
CC(C)C[C@H](N)C(=O)O [condensed, L-leucine]	–	–	0.04	–
CC(C)C[C@H](N)C(=O)O [unprocessed, L-leucine, reference compound]	0.710	–	0.70	Poured Density [3, 5]: 0.710 gcm^−3; Tapped Density [3, 5]: 0.770 gcm^−3
CC(C)C[C@H](N)C(=O)O [spray-dried C, L-leucine]	0.029	–	–	–
CC(C)C[C@H](N)C(=O)O [spray-dried L-leucine, L-leucine]	–	–	–	thickness of flakes [4]: less than 100 nm; Poured Density [3]: 0.043 gcm^−3; Tapped Density [3]: 0.055 gcm^−3

Further lines, with some results ahead:

Bulk Density ([1]; Example 1, Table 1) [g cm^−3]	VMD [2]	Bulk Density ([1]; Example 2, Table 3) [gcm^−3]	SMILES	other results
0.035	–	–	CC(C)C[C@H](N)C(=O)O [spray-dried B, L-leucine]	–
0.032	3.9 μm	–	CC(C)C[C@H](N)C(=O)O [spray-dried E, L-leucine]	D(v,90) [2]: 11.9
0.035	–	–	CC(C)C[C@H](N)C(=O)O [spray-dried D, L-leucine]	–
